The values below come from the OPERA property sets (Mansouri et al. 2018).

Each structure is given as a SMILES string. Where a SMILES comes first, the peptide text is derived from it.

As to `CCc1cc(CC)cc(C2C(=O)c3ccccc3C2=O)c1`, the logP came out at 4.94.

Regarding `COc1cccc(/C=C/C(=O)O)c1`, the logP stood at 2.37.

Consider `CCCCCCCCCCCCCCCCCC(=O)O`, for which the logP came out at 8.23. The figure for `CCN(CC)CC(=O)NCc1ccccc1` is 2.14. In turn, `O=C(c1ccc(F)cc1F)c1ccc2n1CCC2C(=O)O` (stereo not given) came in with a logP of 2.59. As for `O=C(NC12CC3CC(CC(C3)C1)C2)C(O)c1ccccc1` (stereo not given), the figure is 3.09; as for `CCCCCCCCOC(=O)c1cc(=O)[nH]c(=O)[nH]1`, 2.6; as for `O=C(O)/C=C/Oc1ccc(Cl)cc1Cl`, 3.46. As for `CCCCC(O)C(=O)O` (stereo not given), the figure is 0.81; as for `O=C(COc1ccc(OCCNCC(O)COc2ccccc2)cc1)NCc1ccccc1` (stereo not given), 3.2.

On to `O=C(O)CCn1ccc2ccccc21`, for which the logP is 2.2.

`Nc1nnc(CCc2ccccc2)o1` came in with a logP of 1.19.

`OCc1cc(Cl)cc(Cl)c1O` yielded a logP of 2.3. The figure for `Clc1cc(Cl)cc(-c2ccccc2)c1` is 5.41. The figure for `CCCCCCCCCCCC(=O)CC(=O)Nc1c(OC)cc(OC)cc1OC` is 5.02; for `O=C(CN1CCCCC1)Nc1ccc(Cl)c(Cl)c1` it is 3.65; for `Cc1cc2ccccc2o1` it is 3.22. As for `CCN(CC)CCCC(=O)Nc1c(C)cccc1C`, the figure is 2.06; as for `CC1(C)C(C=C2CCSC2=O)C1C(=O)OCc1ccccc1` (stereo not given), 4.02. In the case of `COc1cc(Cc2cnc(N)nc2N)ccc1N(C)C`, the logP turned out to be 1.87. As for `N[C@@H](Cc1cnccn1)C(=O)O`, the figure is -2.79; as for `CC(C)c1ccc(S(N)(=O)=O)cc1`, 1.84. As for `CC(=O)Nc1nc(N2CCN(C)CC2)c(Cl)nc1[N+](=O)[O-]`, the figure is 0.5. The figure for `O=C1c2ccccc2C(=O)C1c1ccc(-c2ccccc2)cc1` is 4.79; for `O=C(O)C=COc1ccccc1` it is 2.27. For the compound `CC(C)c1nnc(SCC(=O)c2ccccc2)n(N)c1=O`, the logP came to 2.07. The figure for `CCOC(=O)C=COc1ccccc1` is 3.18. The figure for `CN(C)c1nc(N(C)C)nc(N(C)CCO)n1` is 1.96; for `C[C@H]1O[C@@H](O[C@H]2CC[C@@]3(C)[C@H](CC[C@@H]4[C@@H]3CC[C@]3(C)[C@@H](C5=CC(=O)OC5)[C@@H](O)C[C@]43O)C2)C[C@H](O)[C@@H]1O` it is 1.77; for `N=C(N)NN=Cc1ccccc1` it is 1.18.

The compound `CCCc1ccc(O)cc1` yielded a logP of 3.2.

With `Cc1nc(Cl)c(C#N)cc1-c1ccccc1`, the logP amounted to 3.24. As to `[N-]=[N+]=N[C@H]1C[C@H](n2ccc(N)nc2=O)O[C@@H]1CO`, the logP is -0.7.

`CCCCc1ccc(O)cc1` gave a logP of 3.65. The figure for `Cc1ccccc1C(=O)c1ccc2n1CCC2C(=O)O` (stereo not given) is 2.9; for `COc1ccc(C(=O)CC(C)CC(=O)O)cc1Cl` (stereo not given) it is 2.6. Take `O=C(O)c1cccnc1`: the logP turned out to be 0.36.

`CCCC(=O)OCC(=O)C1(O)CCC2C3CCC4=CC(=O)CCC4(C)C3C(O)CC21C` (stereo not given) showed a logP of 2.91. The figure for `CCN(CC)CCC(=O)Nc1c(C)cccc1C` is 2.21. As for `O=C(Cn1ccnc1[N+](=O)[O-])NCc1ccccc1`, the figure is 0.91. As for `CCc1ccc2cc3ccccc3cc2c1`, the figure is 5.85; as for `Clc1ccc(Br)cc1NC1=NCCN1`, 2.05; as for `Oc1cccc2c1CCCC2`, 2.95. With `CCc1ccc(NC(=O)CN2CCCCC2)cc1`, the logP was 3.52. Compound `Cc1cc(Br)cc(C(=O)NC2CC2)c1O` showed a logP of 3.8. The figure for `OC(Cn1ccnc1)(c1ccc(F)cc1)c1ccc(-c2ccccn2)cc1` (stereo not given) is 3.58. As for `CCCN(CCC)CC(=O)NCc1ccccc1`, the figure is 3.11. As for `CCOCc1ccccc1`, the figure is 2.16. Compound `CCCCCCCCCCCC(=O)C(C)(C)C(=O)N(C)c1c(OC)cc(OC)cc1OC` displayed a logP of 6.67. As for `C=CCC(NC(=O)C(Cc1ccccc1)NS(=O)(=O)N1CCOCC1)C(=O)NC(COC(F)(F)C(=O)NCCN1CCOCC1)CC1CCCCC1` (stereo not given), the figure is 3.17; as for `CC1Cc2ccccc2CN1` (stereo not given), 1.93; as for `CCC(CC)(C(=O)NC(N)=O)C(=O)OCc1ccccc1`, 2.74. Take `CCc1nc(N)nc(N)c1-c1ccc(Cl)c(Cl)c1`: the logP turned out to be 3.03. The figure for `O=C1C=CC(=O)C(c2ccccc2)=C1` is 1.95; for `CCOC(=O)CNC(=O)CCCCSc1ncnc2nc[nH]c12` it is 0.91; for `CC(=O)NCC(=O)N[C@H](C(N)=O)C(C)C` (Ac-Gly-Val-NH2) it is -1.33. Turning to `Fc1ccc(Cl)c(N=C2NCCN2)c1`, the logP amounted to 1.52.

Take `Clc1cccc(-c2cccc(Cl)c2)c1`: the log partition coefficient (logP) amounted to 5.27.

Take `COc1ccc(CCOC(=O)C(N)Cc2ccc(O)c(O)c2)cc1` (stereo not given): the logP amounted to 1.69. The compound `CNC(=C[N+](=O)[O-])NCCSCc1ccc(CN(C)C)o1` returned a logP of 0.27. As for `OC(Cn1ccnc1)(c1ccc(F)cc1)c1cccc(-c2ccncc2)c1` (stereo not given), the figure is 2.91; as for `CCc1cccc2ccccc12`, 4.4; as for `O=C(O)c1ccc(O)c(Cl)c1`, 2.41. The figure for `c1ccc2c(c1)ccc1cccnc12` is 3.43. The figure for `CCN1CC(C(O)C(CC2CCCCC2)NC(=O)C(Cc2cnc[nH]2)NC(=O)C(Cc2ccc(OC)cc2)NC(=O)N(C)CCOCOCCOC)OC1=O` (stereo not given) is 2.03; for `COc1ccc(C(O)(Cn2ccnc2)c2ccc(Br)cc2)cc1` (stereo not given) it is 4.02. Compound `CCC(=O)OCOC(=O)c1cc(S(N)(=O)=O)c(Cl)cc1NCc1ccco1` returned a logP of 2.9. The figure for `C=C(C)C(=O)OCC(C)(C)COC(=O)C(=C)C` is 2.79; for `COCCc1cnc(-c2ccc(OCC(O)CNCCc3ccc(OC)c(OC)c3)cc2)[nH]1` (stereo not given) it is 2.06; for `c1ccc(-c2nccs2)cc1` it is 2.77.

`COc1cc(Cc2cnc(N)nc2N)ccc1C(C)C` returned a logP of 3.14. As for `Nc1ccc(S(=O)(=O)Nc2ccccc2[N+](=O)[O-])cc1`, the figure is 2.11; as for `COc1c(Br)cc(Br)cc1Br`, 4.48.

Consider `CCCn1c(=O)[nH]c(=O)c2[nH]cnc21`, for which the logP is 0.33.

Turning to `C=CCOc1ccc(C(=O)c2ccc3n2CCC3C(=O)O)cc1` (stereo not given), the logP was 3.48. In turn, `CCCCCCC(C)(C)c1ccc(C2CC(O)CCC2C)c(O)c1` (stereo not given) yielded a logP of 7.49.

In turn, `OC1CCCc2ccccc21` (stereo not given) registered a logP of 1.98. The figure for `O=C(O)c1ccc(Cl)cc1Nc1cccc(Cl)c1` is 5. The figure for `CC1CCC(c2ccccc2)(N2CCCCC2)CC1` (stereo not given) is 5.66; for `CC(=Cc1ccccc1)C(=O)O` it is 2.6; for `OCc1ccccc1C(c1ccc(O)cc1)c1ccc(O)cc1` it is 3.27. As for `Cc1cccc(C(=O)c2ccc3n2CCC3C(=O)O)c1` (stereo not given), the figure is 3.23. Consider `C=C1C(=O)OC2C=C(C)C(OC(C)=O)CC(O)C(C)=CC(OC(=O)C(C)=CC)C12` (stereo not given), for which the logP was 1.16.

Regarding `O=C(CCN1CCC(O)(c2ccc(Cl)cc2)CC1)c1ccc(F)cc1`, the logP turned out to be 3.24.

For the compound `CCOC(=O)C=COc1ccccc1Cl`, the log partition coefficient (logP) came out at 3.55.

One may read the logP as a log measure of how a compound divides between an organic and an aqueous phase. Low readings indicate a more hydrophilic compound, high ones a more lipophilic compound.
